According to publication PMC4154495 (Molecular cancer therapeutics, 2014):
pKd: −log10 of the molar value.

Biological target: T1, ETV1 (ETS variant 1) (Homo sapiens, UniProt P50549)
T1 sequence (P50549 1-477): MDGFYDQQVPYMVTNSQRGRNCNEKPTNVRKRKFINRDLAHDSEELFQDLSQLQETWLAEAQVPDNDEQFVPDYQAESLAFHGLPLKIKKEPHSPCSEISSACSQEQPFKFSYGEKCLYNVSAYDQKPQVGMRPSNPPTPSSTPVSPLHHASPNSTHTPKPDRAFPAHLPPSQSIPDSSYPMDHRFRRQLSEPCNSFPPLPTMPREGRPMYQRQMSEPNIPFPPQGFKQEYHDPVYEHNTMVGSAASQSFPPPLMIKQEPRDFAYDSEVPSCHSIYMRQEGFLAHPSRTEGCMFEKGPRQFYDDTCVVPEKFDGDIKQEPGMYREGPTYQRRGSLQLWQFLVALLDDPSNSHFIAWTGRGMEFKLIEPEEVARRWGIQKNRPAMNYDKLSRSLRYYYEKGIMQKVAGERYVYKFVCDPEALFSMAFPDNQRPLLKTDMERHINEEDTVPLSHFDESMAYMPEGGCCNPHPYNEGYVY
Experiment: SPR
Assay type: binding

## COc1ccc(Nc2nc(N)nc(CN3CCCCC3)n2)cc1 [compound 1, BRD32048]
  pKd: 4.77
